Test results reported in US6355799B1, “Substituted benzene compounds, process for their preparation, and herbicidal and defoliant compositions containing them” (ISK Americas Incorporated, priority 1997, dated 2002).

How the values were obtained:
Type in all cases: in vivo
[1] = tested on: redroot pigweed (Amaranthus retroflexus, AMARE); test: Pre-emerge test, greenhouse herbicide activity screening; details: pre-emerge, rated 14 days after application, 0 = no damage, 100 = complete death
Outline: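 Visual ratings on a 0-100 scale (0 no damage, 100 all plants dead) were taken at 14 days after treatment. Rates of 15-1000 g ai/ha in acetone, 187 l/ha, were sprayed onto soil one day after planting (pre-emerge) or onto 2-3 leaf plants with 0.25% v/v surfactant (post-emerge).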

[2] = tested on: upland rice (Oryza sp., var. Tebonnet, RICE); test: Post-emerge test, crop safety; details: phytotoxicity rating 0-100 (0 no damage, 100 complete death), 14 days after application
Outline: (§1)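 Fourteen days after spraying, crop and weed injury was graded visually from 0, no effect, to 100, every plant dead. Test substances were dissolved in acetone and applied at 15–1000 g ai/ha with a flat-fan nozzle. Application was either pre-emergence, one day after sowing, or post-emergence at the 2–3 leaf stage.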

[3] = tested on: field corn (Zea mays L., var. Dekalb 535, CORN); test: Post-emerge test, crop safety; details: phytotoxicity rating 0-100 (0 no damage, 100 complete death), 14 days after application
Outline: as §1

[4] = tested on: ivyleaf morningglory (Ipomoea hederacea, IPOHE); test: Post-emerge test, greenhouse herbicide activity screening; details: phytotoxicity rating 0-100 (0 no damage, 100 complete death), 14 days after application
Outline: (§2)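 Compounds in acetone were track-sprayed at 15–1000 g ai/ha: pre-emergence onto soil sown the previous day, then top-watered to incorporate and later bottom-watered; post-emergence onto 2–3 leaf plants with 0.25% v/v surfactant, bottom-watered only. Ratings on a 0–100 phytotoxicity scale were taken at day 14.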

[5] = tested on: barnyardgrass (Echinochloa crus-galli, ECHCG); test: as above; details: phytotoxicity rating 0-100 (0 no damage, 100 complete death), 14 days after application
Outline: as §2

[6] = tested on: large crabgrass (Digitaria sanguinalis, DIGSA); test: as above; details: phytotoxicity rating 0-100 (0 no damage, 100 complete death), 14 days after application
Outline: as §2

[7] = tested on: redroot pigweed (Amaranthus retroflexus, AMARE); test: as above; details: phytotoxicity rating 0-100 (0 no damage, 100 complete death), 14 days after application
Outline: as §2

[8] = tested on: johnsongrass (Sorghum halepense, SORHA); test: as above; details: phytotoxicity rating 0-100 (0 no damage, 100 complete death), 14 days after application
Outline: as §2

[9] = tested on: green foxtail (Setaria viridis, SETVI); test: as above; details: phytotoxicity rating 0-100 (0 no damage, 100 complete death), 14 days after application
Outline: as §2

[10] = tested on: sicklepod (Cassia obtusifolia, CASOB); test: as above; details: phytotoxicity rating 0-100 (0 no damage, 100 complete death), 14 days after application
Outline: as §2

[11] = tested on: lambsquarters (Chenopodium album, CHEAL); test: as above; details: phytotoxicity rating 0-100 (0 no damage, 100 complete death), 14 days after application
Outline: as §2

[12] = tested on: velvetleaf (Abutilon theophrasti, ABUTH); test: as above; details: phytotoxicity rating 0-100 (0 no damage, 100 complete death), 14 days after application
Outline: as §2

[13] = tested on: ivyleaf morningglory (Ipomoea hederacea, IPOHE); test: Pre-emerge test, greenhouse herbicide activity screening; details: pre-emerge, rated 14 days after application, 0 = no damage, 100 = complete death
Outline: as §1

[14] = tested on: barnyardgrass (Echinochloa crus-galli, ECHCG); test: as above; details: pre-emerge, rated 14 days after application, 0 = no damage, 100 = complete death
Outline: as §1

[15] = tested on: large crabgrass (Digitaria sanguinalis, DIGSA); test: as above; details: pre-emerge, rated 14 days after application, 0 = no damage, 100 = complete death
Outline: as §1

[16] = tested on: johnsongrass (Sorghum halepense, SORHA); test: as above; details: pre-emerge, rated 14 days after application, 0 = no damage, 100 = complete death
Outline: as §1

[17] = tested on: green foxtail (Setaria viridis, SETVI); test: as above; details: pre-emerge, rated 14 days after application, 0 = no damage, 100 = complete death
Outline: as §1

[18] = tested on: sicklepod (Cassia obtusifolia, CASOB); test: as above; details: pre-emerge, rated 14 days after application, 0 = no damage, 100 = complete death
Outline: as §1

[19] = tested on: lambsquarters (Chenopodium album, CHEAL); test: as above; details: pre-emerge, rated 14 days after application, 0 = no damage, 100 = complete death
Outline: as §1

[20] = tested on: velvetleaf (Abutilon theophrasti, ABUTH); test: as above; details: pre-emerge, rated 14 days after application, 0 = no damage, 100 = complete death
Outline: as §1

[21] = tested on: upland rice (Oryza sp., var. Tebonnet, RICE); test: Pre-emerge test, crop safety; details: pre-emerge, rated 14 days after application, 0 = no damage, 100 = complete death
Outline: (§3)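 Plants grown in 10 cm pots of sandy loam mix received acetone-dissolved compounds through a moving flat-fan nozzle. Doses ranged from 15 to 1000 g ai/ha. Pre-emerge pots were seeded one day earlier, post-emerge pots 8–21 days earlier. Fourteen days on, each pot was graded 0–100 for damage.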

[22] = tested on: field corn (Zea mays L., var. Dekalb 535, CORN); test: Pre-emerge test, crop safety; details: pre-emerge, rated 14 days after application, 0 = no damage, 100 = complete death
Outline: as §3

Structure (SMILES): C=C(C)C(=O)N(C(=O)C(=C)C)c1c(OC)c(Cl)cc(F)c1-n1c(=O)cc(C(F)(F)F)n(C)c1=O [2-6]
- Pre-emerge Herbicidal Activity AMARE (phytotoxicity rating, scale 0-100) ([1]; 63 g ai/ha): 0
- Pre-emerge Herbicidal Activity AMARE (phytotoxicity rating, scale 0-100) ([1]; 250 g ai/ha): 50
- Post-emerge Herbicidal Activity RICE (crop damage) ([2]; 63 g ai/ha): 0
- Post-emerge Herbicidal Activity RICE (crop damage) ([2]; 250 g ai/ha): 0
- Post-emerge Herbicidal Activity CORN (crop damage) ([3]; 63 g ai/ha): 0
- Post-emerge Herbicidal Activity CORN (crop damage) ([3]; 250 g ai/ha): 5
- Post-emerge Herbicidal Activity IPOHE ([4]; 63 g ai/ha): 0
- Post-emerge Herbicidal Activity IPOHE ([4]; 250 g ai/ha): 30
- Post-emerge Herbicidal Activity ECHCG ([5]; 63 g ai/ha): 0
- Post-emerge Herbicidal Activity ECHCG ([5]; 250 g ai/ha): 0
- Post-emerge Herbicidal Activity DIGSA ([6]; 63 g ai/ha): 0
- Post-emerge Herbicidal Activity DIGSA ([6]; 250 g ai/ha): 0
- Post-emerge Herbicidal Activity AMARE ([7]; 63 g ai/ha): 0
- Post-emerge Herbicidal Activity AMARE ([7]; 250 g ai/ha): 10
- Post-emerge Herbicidal Activity SORHA ([8]; 63 g ai/ha): 0
- Post-emerge Herbicidal Activity SORHA ([8]; 250 g ai/ha): 0
- Post-emerge Herbicidal Activity SETVI ([9]; 63 g ai/ha): 0
- Post-emerge Herbicidal Activity SETVI ([9]; 250 g ai/ha): 0
- Post-emerge Herbicidal Activity CASOB ([10]; 63 g ai/ha): 0
- Post-emerge Herbicidal Activity CASOB ([10]; 250 g ai/ha): 0
- Post-emerge Herbicidal Activity CHEAL ([11]; 63 g ai/ha): 0
- Post-emerge Herbicidal Activity CHEAL ([11]; 250 g ai/ha): 30
- Post-emerge Herbicidal Activity ABUTH ([12]; 63 g ai/ha): 0
- Post-emerge Herbicidal Activity ABUTH ([12]; 250 g ai/ha): 70
- Pre-emerge Herbicidal Activity IPOHE (phytotoxicity rating, scale 0-100) ([13]; 63 g ai/ha): 0
- Pre-emerge Herbicidal Activity IPOHE (phytotoxicity rating, scale 0-100) ([13]; 250 g ai/ha): 0
- Pre-emerge Herbicidal Activity ECHCG (phytotoxicity rating, scale 0-100) ([14]; 63 g ai/ha): 0
- Pre-emerge Herbicidal Activity ECHCG (phytotoxicity rating, scale 0-100) ([14]; 250 g ai/ha): 0
- Pre-emerge Herbicidal Activity DIGSA (phytotoxicity rating, scale 0-100) ([15]; 63 g ai/ha): 0
- Pre-emerge Herbicidal Activity DIGSA (phytotoxicity rating, scale 0-100) ([15]; 250 g ai/ha): 10
- Pre-emerge Herbicidal Activity SORHA (phytotoxicity rating, scale 0-100) ([16]; 63 g ai/ha): 0
- Pre-emerge Herbicidal Activity SORHA (phytotoxicity rating, scale 0-100) ([16]; 250 g ai/ha): 20
- Pre-emerge Herbicidal Activity SETVI (phytotoxicity rating, scale 0-100) ([17]; 63 g ai/ha): 0
- Pre-emerge Herbicidal Activity SETVI (phytotoxicity rating, scale 0-100) ([17]; 250 g ai/ha): 80
- Pre-emerge Herbicidal Activity CASOB (phytotoxicity rating, scale 0-100) ([18]; 63 g ai/ha): 0
- Pre-emerge Herbicidal Activity CASOB (phytotoxicity rating, scale 0-100) ([18]; 250 g ai/ha): 0
- Pre-emerge Herbicidal Activity CHEAL (phytotoxicity rating, scale 0-100) ([19]; 63 g ai/ha): 0
- Pre-emerge Herbicidal Activity CHEAL (phytotoxicity rating, scale 0-100) ([19]; 250 g ai/ha): 0
- Pre-emerge Herbicidal Activity ABUTH (phytotoxicity rating, scale 0-100) ([20]; 63 g ai/ha): 0
- Pre-emerge Herbicidal Activity ABUTH (phytotoxicity rating, scale 0-100) ([20]; 250 g ai/ha): 0
- Pre-emerge crop damage RICE (phytotoxicity rating, scale 0-100) ([21]; 63 g ai/ha): 0
- Pre-emerge crop damage RICE (phytotoxicity rating, scale 0-100) ([21]; 250 g ai/ha): 0
- Pre-emerge crop damage CORN (phytotoxicity rating, scale 0-100) ([22]; 63 g ai/ha): 0
- Pre-emerge crop damage CORN (phytotoxicity rating, scale 0-100) ([22]; 250 g ai/ha): 0
